Laboratory results: publication PMC11968843, “Sulphostin-inspired N-phosphonopiperidones as selective covalent DPP8 and DPP9 inhibitors” (Nature Communications, 2025)

Legend:
Experiment in all cases: Competitive ABPP / direct target identification with alkyne probe 9 in HEK293 cell lysates
Type in all cases: binding, H. sapiens
[1] = biological target: T1, HEK293 cell lysates (proteome-wide targets of probe 9) (Homo sapiens, UniProt Q7Z5P9); details: protein MUC19
T1 construct: endogenous in cells; host or cells: HEK293 cell lysate

[2] = biological target: T2, HEK293 cell lysates (proteome-wide targets of probe 9) (Homo sapiens, UniProt P68363); details: protein TUBA1B
T2 construct: endogenous in cells; host or cells: HEK293 cell lysate

[3] = biological target: T3, HEK293 cell lysates (proteome-wide targets of probe 9) (Homo sapiens, UniProt Q08211); details: protein DHX9
T3 construct: endogenous in cells; host or cells: HEK293 cell lysate

[4] = biological target: T4, HEK293 cell lysates (proteome-wide targets of probe 9) (Homo sapiens, UniProt Q5T749); details: protein KPRP
T4 construct: endogenous in cells; host or cells: HEK293 cell lysate

[5] = biological target: T5, HEK293 cell lysates (proteome-wide targets of probe 9) (Homo sapiens, UniProt P83731); details: protein RPL24
T5 construct: endogenous in cells; host or cells: HEK293 cell lysate

[6] = biological target: T6, HEK293 cell lysates (proteome-wide targets of probe 9) (Homo sapiens, UniProt P30041); details: protein PRDX6
T6 construct: endogenous in cells; host or cells: HEK293 cell lysate

[7] = biological target: T7, HEK293 cell lysates (proteome-wide targets of probe 9) (Homo sapiens, UniProt P23396); details: protein RPS3
T7 construct: endogenous in cells; host or cells: HEK293 cell lysate

[8] = biological target: T8, HEK293 cell lysates (proteome-wide targets of probe 9) (Homo sapiens, UniProt Q96RQ3); details: protein MCCC1
T8 construct: endogenous in cells; host or cells: HEK293 cell lysate

[9] = biological target: T9, HEK293 cell lysates (proteome-wide targets of probe 9) (Homo sapiens, UniProt Q06830); details: protein PRDX1
T9 construct: endogenous in cells; host or cells: HEK293 cell lysate

[10] = biological target: T10, HEK293 cell lysates (proteome-wide targets of probe 9) (Homo sapiens, UniProt P22234); details: protein PAICS
T10 construct: endogenous in cells; host or cells: HEK293 cell lysate

[11] = biological target: T11, HEK293 cell lysates (proteome-wide targets of probe 9) (Homo sapiens, UniProt P04406); details: protein GAPDH
T11 construct: endogenous in cells; host or cells: HEK293 cell lysate

[12] = biological target: T12, HEK293 cell lysates (proteome-wide targets of probe 9) (Homo sapiens, UniProt P14174); details: protein MIF
T12 construct: endogenous in cells; host or cells: HEK293 cell lysate

[13] = biological target: T13, HEK293 cell lysates (proteome-wide targets of probe 9) (Homo sapiens, UniProt P09211); details: protein GSTP1
T13 construct: endogenous in cells; host or cells: HEK293 cell lysate

[14] = biological target: T14, HEK293 cell lysates (proteome-wide targets of probe 9) (Homo sapiens, UniProt O15372); details: protein EIF3H
T14 construct: endogenous in cells; host or cells: HEK293 cell lysate

[15] = test system: HEK293 cell lysates (proteome-wide targets of probe 9)
[16] = biological target: T15, HEK293 cell lysates (proteome-wide targets of probe 9) (Homo sapiens, UniProt P08865); details: protein RPSA
T15 construct: endogenous in cells; host or cells: HEK293 cell lysate

[17] = biological target: T16, HEK293 cell lysates (proteome-wide targets of probe 9) (Homo sapiens, UniProt P07814); details: protein EPRS
T16 construct: endogenous in cells; host or cells: HEK293 cell lysate

[18] = biological target: T17, HEK293 cell lysates (proteome-wide targets of probe 9) (Homo sapiens, UniProt P52292); details: protein KPNA2
T17 construct: endogenous in cells; host or cells: HEK293 cell lysate

[19] = biological target: T18, HEK293 cell lysates (proteome-wide targets of probe 9) (Homo sapiens, UniProt P62280); details: protein RPS11
T18 construct: endogenous in cells; host or cells: HEK293 cell lysate

[20] = biological target: T19, HEK293 cell lysates (proteome-wide targets of probe 9) (Homo sapiens, UniProt P05455); details: protein SSB
T19 construct: endogenous in cells; host or cells: HEK293 cell lysate

[21] = biological target: T20, HEK293 cell lysates (proteome-wide targets of probe 9) (Homo sapiens, UniProt P46781); details: protein RPS9
T20 construct: endogenous in cells; host or cells: HEK293 cell lysate

[22] = biological target: T21, HEK293 cell lysates (proteome-wide targets of probe 9) (Homo sapiens, UniProt P08670); details: protein VIM
T21 construct: endogenous in cells; host or cells: HEK293 cell lysate

[23] = biological target: T22, HEK293 cell lysates (proteome-wide targets of probe 9) (Homo sapiens, UniProt P29401); details: protein TKT
T22 construct: endogenous in cells; host or cells: HEK293 cell lysate

[24] = biological target: T23, HEK293 cell lysates (proteome-wide targets of probe 9) (Homo sapiens, UniProt P08758); details: protein ANXA5
T23 construct: endogenous in cells; host or cells: HEK293 cell lysate

[25] = biological target: T24, HEK293 cell lysates (proteome-wide targets of probe 9) (Homo sapiens, UniProt Q9NR30); details: protein DDX21
T24 construct: endogenous in cells; host or cells: HEK293 cell lysate

[26] = biological target: T25, HEK293 cell lysates (proteome-wide targets of probe 9) (Homo sapiens, UniProt Q00839); details: protein HNRNPU
T25 construct: endogenous in cells; host or cells: HEK293 cell lysate

[27] = biological target: T26, HEK293 cell lysates (proteome-wide targets of probe 9) (Homo sapiens, UniProt Q15366); details: protein PCBP2
T26 construct: endogenous in cells; host or cells: HEK293 cell lysate

[28] = biological target: T27, HEK293 cell lysates (proteome-wide targets of probe 9) (Homo sapiens, UniProt P08238); details: protein HSP90AB1
T27 construct: endogenous in cells; host or cells: HEK293 cell lysate

[29] = biological target: T28, HEK293 cell lysates (proteome-wide targets of probe 9) (Homo sapiens, UniProt P46776); details: protein RPL27A
T28 construct: endogenous in cells; host or cells: HEK293 cell lysate

[30] = biological target: T29, HEK293 cell lysates (proteome-wide targets of probe 9) (Homo sapiens, UniProt P36578); details: protein RPL4
T29 construct: endogenous in cells; host or cells: HEK293 cell lysate

[31] = protein HIST1H1C;HIST1H1E;HIST1H1D
[32] = protein group Histone H2A type 1 (HIST1H2AG and others)

C#CCCCP(=O)(OCC)N1CCCC(N)C1=O.O=C(O)C(F)(F)F (mixture of isomers) [Compound 9]
Log2-fold change (9/DMSO) [1]: -1.528 | Log2-fold change (9/DMSO) [2]: 0.8793 | Log2-fold change (9/DMSO) [3]: -0.5054 | Log2-fold change (9/DMSO) [4]: -0.1834 | Log2-fold change (9/DMSO) [5]: -0.3893 | Log2-fold change (9/DMSO) [6]: 0.7412 | Log2-fold change (9/DMSO) [7]: 0.2732 | Log2-fold change (9/DMSO) [8]: -0.5895 | Log2-fold change (9/DMSO) [9]: 0.4333 | Log2-fold change (9/DMSO) [10]: -0.1992 | Log2-fold change (9/DMSO) [11]: -0.2878 | Log2-fold change (9/DMSO) [12]: 2.233 | Log2-fold change (9/DMSO) [13]: 1.848 | Log2-fold change (9/DMSO) [14]: 0.7356 | proteins significantly enriched by the alkyne probe ([15]; 10 µM probe, HEK293 lysates): significant enrichment of only two proteins, namely DPP9 and the off-target prolyl endopeptidase (PREP) | Log2-fold change (9/DMSO) ([15]; protein EEF1A1;EEF1A1P5;EEF1A2): 0.04533 | Log2-fold change (9/DMSO) ([15]; protein EIF5A;EIF5AL1): 1.278 | Log2-fold change (9/DMSO) [15, 31]: 0.83 | Log2-fold change (9/DMSO) ([15]; protein HNRNPH1;HNRNPH2): -0.1168 | Log2-fold change (9/DMSO) ([15]; protein ID A0A1B0GV53): -4.4932 | Log2-fold change (9/DMSO) ([15]; protein NME1;NME2): 0.34 | Log2-fold change (9/DMSO) ([15]; protein PABPC1;PABPC3): 0.8323 | Log2-fold change (9/DMSO) ([15]; protein PGAM1;PGAM2): 1.799 | Log2-fold change (9/DMSO) ([15]; protein TUBB4B;TUBB4A): 1.386 | Log2-fold change (9/DMSO) [15, 32]: -1.664 | Log2-fold change (9/DMSO) [16]: 1.5735 | Log2-fold change (9/DMSO) [17]: 0.7172 | Log2-fold change (9/DMSO) [18]: 0.6086 | Log2-fold change (9/DMSO) [19]: -0.5072 | Log2-fold change (9/DMSO) [20]: 1.078 | Log2-fold change (9/DMSO) [21]: 0.8119 | Log2-fold change (9/DMSO) [22]: 0.9336 | Log2-fold change (9/DMSO) [23]: -1.0711 | Log2-fold change (9/DMSO) [24]: -0.9261 | Log2-fold change (9/DMSO) [25]: 0.9591 | Log2-fold change (9/DMSO) [26]: -0.419 | Log2-fold change (9/DMSO) [27]: 1.083 | Log2-fold change (9/DMSO) [28]: 0.02806 | Log2-fold change (9/DMSO) [29]: -2.372 | Log2-fold change (9/DMSO) [30]: -0.3595

CCCCCc1ccc(SCCP(=O)(OCC)N2CCC[C@H](N)C2=O)cc1.O=C(O)C(F)(F)F (stereo partly shown) [Compound 16]
Log2-fold change (16/9) [1]: 0.8224 | Log2-fold change (16/9) [2]: -1.967 | Log2-fold change (16/9) [3]: -0.1923 | Log2-fold change (16/9) [4]: 0.315 | Log2-fold change (16/9) [5]: 1.34 | Log2-fold change (16/9) [6]: 0.07848 | Log2-fold change (16/9) [7]: -0.6746 | Log2-fold change (16/9) [8]: 0.1036 | Log2-fold change (16/9) [9]: 0.107 | Log2-fold change (16/9) [10]: 0.0197 | Log2-fold change (16/9) [11]: 0.4935 | Log2-fold change (16/9) [12]: -0.05345 | Log2-fold change (16/9) [13]: -1.311 | Log2-fold change (16/9) [14]: -0.06894 | competition of labeling by probe 9 ([15]; 50 µM competitor, 10 µM 9, HEK293 lysates): solely DPP9 was competed | Log2-fold change (16/9) ([15]; protein EEF1A1;EEF1A1P5;EEF1A2): -1.204 | Log2-fold change (16/9) ([15]; protein EIF5A;EIF5AL1): -2.135 | Log2-fold change (16/9) [15, 31]: -0.04142 | Log2-fold change (16/9) ([15]; protein HNRNPH1;HNRNPH2): 0.1964 | Log2-fold change (16/9) ([15]; protein HSPA1A;HSPA1B): -0.2164 | Log2-fold change (16/9) ([15]; protein ID A0A1B0GV53): 0.5692 | Log2-fold change (16/9) ([15]; protein NME1;NME2): -0.08451 | Log2-fold change (16/9) ([15]; protein PABPC1;PABPC3): -0.421 | Log2-fold change (16/9) ([15]; protein PGAM1;PGAM2): -2.097 | Log2-fold change (16/9) ([15]; protein RPLP0;RPLP0P6): -0.5558 | Log2-fold change (16/9) ([15]; protein TUBB4B;TUBB4A): -2.026 | Log2-fold change (16/9) [15, 32]: 0.5881 | Log2-fold change (16/9) [16]: -2.215 | Log2-fold change (16/9) [17]: -0.09528 | Log2-fold change (16/9) [18]: -0.6819 | Log2-fold change (16/9) [19]: 0.1367 | Log2-fold change (16/9) [20]: -1.02 | Log2-fold change (16/9) [21]: 0.2438 | Log2-fold change (16/9) [22]: -0.2472 | Log2-fold change (16/9) [23]: 1.379 | Log2-fold change (16/9) [24]: 0.8558 | Log2-fold change (16/9) [25]: 0.06992 | Log2-fold change (16/9) [26]: -1.015 | Log2-fold change (16/9) [27]: -0.4376 | Log2-fold change (16/9) [28]: -0.3526 | Log2-fold change (16/9) [29]: 0.01928 | Log2-fold change (16/9) [30]: 0.07056
